pIC50: −log10 of the molar value. Several values for one entry are separate records, joined by “and”; a condition that tells them apart may be missing. Identical values can stand only once. Entries after “also recorded” stand apart in the source; their conditions may differ.
Assays:
ovine recombinant COX–1 = biological target: T1, ovine recombinant COX–1 (Ovis aries, UniProt P05979); experiment: cell-free COX–1 enzyme assay (PGE2 formation, LC-MS); format: biochemical; parameters: purchased Cayman Chemicals/ Biomol, Hamburg, Germany; conditions: for IC50 (95% CI), COX–1 enzyme assay / pIC50: calculated based on PGE2, n = 3; for pIC50: read-out: IC50 (95% CI), COX–1 enzyme assay
T1 sequence (P05979 25-600): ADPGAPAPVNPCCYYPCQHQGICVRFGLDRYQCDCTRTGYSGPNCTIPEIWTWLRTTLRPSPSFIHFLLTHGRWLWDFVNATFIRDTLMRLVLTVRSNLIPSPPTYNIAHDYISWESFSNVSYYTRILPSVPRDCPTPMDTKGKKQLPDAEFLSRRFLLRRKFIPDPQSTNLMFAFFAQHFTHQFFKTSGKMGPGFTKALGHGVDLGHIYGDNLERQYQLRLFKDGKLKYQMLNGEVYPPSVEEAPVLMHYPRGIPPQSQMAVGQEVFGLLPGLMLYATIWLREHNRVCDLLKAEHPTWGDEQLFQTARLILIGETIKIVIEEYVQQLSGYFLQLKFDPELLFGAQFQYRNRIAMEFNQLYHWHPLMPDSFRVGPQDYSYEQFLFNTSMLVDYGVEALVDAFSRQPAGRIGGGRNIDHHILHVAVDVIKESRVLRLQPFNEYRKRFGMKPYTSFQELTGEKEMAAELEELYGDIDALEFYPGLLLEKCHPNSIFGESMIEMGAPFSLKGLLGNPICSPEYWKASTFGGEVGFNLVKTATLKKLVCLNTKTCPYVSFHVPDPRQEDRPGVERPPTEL
Procedure: (§1) The in vitro assays were performed as described [6, 16, 18] and COX metabolites were quantified by LC-MS [18].
(§2) Primary human monocytes were freshly isolated from human blood. Blood was collected from healthy human subjects after written informed consent was obtained. […] After 24 h, the supernatant was sampled for LC-MS and cells were collected for the COX–2 expression analysis by Western Blotting.
(§3) GraphPad Prism 5.0 (GraphPad Software, San Diego, USA) was used for data analysis, the fitting of dose response curves and calculation of the IC50 values. Statistical differences were determined by Dunnetts test (LPS vs. other groups).

COX–2 [1] = conditions: cited from earlier work
COX–2 [2] = biological target: T2, COX–2 (Homo sapiens, UniProt P35354); experiment: PGE2 formation in HCA–7 cells (24 h, LC-MS); format: cell-based; conditions: for IC50 (95% CI), HCA-7 cell line: calculated based on PGE2, n = 3, 24 h; for changes of PGE2 formation in HCA–7 cells: non-cytotoxic concentrations, 24 h
T2 sequence (P35354 18-604): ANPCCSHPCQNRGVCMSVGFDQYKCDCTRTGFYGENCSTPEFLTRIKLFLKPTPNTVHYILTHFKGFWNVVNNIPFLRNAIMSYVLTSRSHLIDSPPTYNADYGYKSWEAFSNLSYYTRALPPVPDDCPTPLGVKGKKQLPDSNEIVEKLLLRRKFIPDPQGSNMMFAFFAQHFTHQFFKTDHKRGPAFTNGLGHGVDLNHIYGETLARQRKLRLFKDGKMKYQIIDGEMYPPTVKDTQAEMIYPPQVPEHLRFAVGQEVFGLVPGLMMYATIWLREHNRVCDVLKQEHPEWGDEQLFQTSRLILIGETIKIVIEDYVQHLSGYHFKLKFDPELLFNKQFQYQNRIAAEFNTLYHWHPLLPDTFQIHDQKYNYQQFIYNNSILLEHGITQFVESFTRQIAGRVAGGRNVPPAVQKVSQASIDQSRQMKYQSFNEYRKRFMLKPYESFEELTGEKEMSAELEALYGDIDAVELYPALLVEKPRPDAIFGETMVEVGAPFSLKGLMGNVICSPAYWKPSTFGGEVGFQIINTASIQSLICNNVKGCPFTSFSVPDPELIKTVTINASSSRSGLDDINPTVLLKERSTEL
Procedure: as §1
(§4) HCA–7 cells were incubated with sub-cytotoxic concentrations of the polyphenols dissolved in Tris buffered DMEM medium. Cytotoxicity of the polyphenols was evaluated by the lactate dehydrogenase leakage test (Cyto-Tox-ONE, Promega Mannheim, Germany). After 24 h the supernatant was collected for LC-MS analysis and the cells were harvested to analyze the COX–2 expression by Western Blotting.
After 24 h, the supernatant was sampled for LC-MS and cells were collected for the COX–2 expression analysis by Western Blotting.
as §3

COX–2 [3] = biological target: T2, COX–2; experiment: PGE2 formation in LPS stimulated primary human monocytes (24 h, LC-MS); format: cell-based; conditions: for pIC50: read-out: IC50 (95% CI), primary monocytes
Procedure: as §1, §2, §3

COX–2 [4] = biological target: T2, COX–2; experiment: cell-free COX–2 enzyme assay (PGE2 formation, LC-MS); format: biochemical; conditions: for pIC50 / IC50 (95% CI), COX–2 enzyme assay: calculated based on PGE2, n = 3; for pIC50: read-out: IC50 (95% CI), COX–2 enzyme assay
Procedure: as §1, §2, §3

COX–2 protein [5] = experiment: COX–2 expression in LPS stimulated primary human monocytes (Western Blot); conditions: 24 h, vs. control
Procedure: as §2

COX–2 protein [6] = experiment: COX–2 expression in HCA–7 cells (Western Blot); format: cell-based, human; conditions: 24 h, vs. control
Procedure: as §4

COX–2 protein [7] = conditions: cited from earlier work
[8] = cited from earlier work
[9] = LPS stimulated, calculated based on PGE2, n = 3, 24 h

## COc1c(O)cc(O)c2c(=O)cc(-c3ccccc3)oc12 [Wogonin, wogonin]
Ovine recombinant COX–1
  effect on COX–1 dependent PGE2 formation, cell-free enzyme assay: no effect
  IC50 (95% CI), COX–1 enzyme assay: no effect (up to 100 μM)
COX–2 [1]; read-out: IC50, LPS stimulated murine macrophages
  pIC50: 6.52

## hopeaphenol
COX–2 [2]
  IC50 (95% CI), HCA-7 cell line: no effect (up to 1 μM)
  changes of PGE2 formation in HCA–7 cells: no or only slight
COX–2 [3]; up to 1 μM
  inhibition, primary monocytes: inhibition < 50% (up to 1 μM)
COX–2 [4]
  effect on COX–2 dependent PGE2 formation, cell-free enzyme assay: dose-dependently decreased; also recorded: inhibited
  pIC50: 4.66
Ovine recombinant COX–1
  effect on COX–1 dependent PGE2 formation, cell-free enzyme assay: dose-dependently decreased; also recorded: inhibited
  pIC50: 5.40
COX–2 protein [5]
  COX-2 Expression, primary monocytes: 1 μM: COX–2 ↓
COX–2 protein [5]; listed as hopeaphenol
  COX-2 Expression, primary monocytes: Decreased COX–2 protein levels
COX–2 protein [6]
  COX-2 Expression, HCA-7 cell line: no effect (up to 1 μM)

## COc1ccc(-c2cc(=O)c3c(OC)c(OC)c(OC)c(OC)c3o2)cc1OC [Nobiletin, nobiletin]
COX–2 [2]
  changes of PGE2 formation in HCA–7 cells: no or only slight; also recorded: affected
COX–2 [2]; up to 100 μM
  inhibition, HCA-7 cell line: inhibition < 50%(up to 100 μM)
COX–2 [3]; [9]
  pIC50: 4.62
COX–2 [4]
  effect on COX–2 dependent PGE2 formation, cell-free enzyme assay: no effect
  IC50 (95% CI), COX–2 enzyme assay: no effect (up to 100 μM)
Ovine recombinant COX–1
  effect on COX–1 dependent PGE2 formation, cell-free enzyme assay: no effect
  IC50 (95% CI), COX–1 enzyme assay: no effect (up to 100 μM)
COX–2 protein [5]
  COX-2 Expression, primary monocytes: no effect(up to 100 μM)
COX–2 protein [6]
  COX-2 Expression, HCA-7 cell line: 100 μM:COX–2 ↓
COX–2 protein [6]; listed as nobiletin
  COX-2 Expression, HCA-7 cell line: decreased COX–2 expression
COX–2 protein [7]
  COX–2 protein levels, LPS stimulated RAW 264.7 cells: decreased COX–2 protein levels

## O=C(O[C@@H]1Cc2c(O)cc(O)cc2O[C@@H]1c1cc(O)c(O)c(O)c1)c1cc(O)c(O)c(O)c1 [EGCG, epigallocatechingallat]
COX–2 [2]
  IC50 (95% CI), HCA-7 cell line: no effect (up to 10 μM)
  changes of PGE2 formation in HCA–7 cells: no or only slight
COX–2 [3]; [9]
  IC50 (95% CI), primary monocytes: no effect(up to 10 μM)
[8]; in vivo
  maximal plasma concentrations: 0.13 to 0.33 µM
COX–2 [4]
  effect on COX–2 dependent PGE2 formation, cell-free enzyme assay: dose-dependently decreased; also recorded: inhibited
  pIC50: 4.49
Ovine recombinant COX–1
  effect on COX–1 dependent PGE2 formation, cell-free enzyme assay: dose-dependently decreased; also recorded: inhibited
  pIC50: 4.77
COX–2 protein [5]
  COX-2 Expression, primary monocytes: Decreased COX–2 protein levels and 10 μM:COX–2 ↓
COX–2 protein [6]
  COX-2 Expression, HCA-7 cell line: no effect(up to 10 μM)
COX–2 protein [7]
  COX–2 (protein) levels, RAW 264.7 cells: slight increase
COX–2 [1]
  PGE2 formation / levels, RAW 264.7 cells: lack of effect

## O=C1C[C@@H](c2ccc(O)cc2)Oc2cc(O)cc(O)c21 [Naringenin, naringenin]
COX–2 [2]; HCA-7, 100 μM, read-out: inhibition, HCA-7 cell line
  inhibition at 100 µM: 53%
COX–2 [2]
  changes of PGE2 formation in HCA–7 cells: affected
COX–2 [3]; [9]
  pIC50: 4.54
[8]; humans, ingestion of grapefruit juice (0.2 g total naringenin)
  plasma peak level, total naringenin (free and conjugated form): 6 µM
COX–2 [4]
  effect on COX–2 dependent PGE2 formation, cell-free enzyme assay: no effect
  IC50 (95% CI), COX–2 enzyme assay: no effect (up to 100 μM)
Ovine recombinant COX–1
  effect on COX–1 dependent PGE2 formation, cell-free enzyme assay: no effect
  IC50 (95% CI), COX–1 enzyme assay: no effect (up to 100 μM)
COX–2 protein [5]
  COX-2 Expression, primary monocytes: 100, 30 μM:COX–2 ↓
COX–2 protein [5]; listed as naringenin
  COX-2 Expression, primary monocytes: Decreased COX–2 protein levels
COX–2 protein [6]
  COX-2 Expression, HCA-7 cell line: 100 μM:COX–2 ↓
COX–2 protein [6]; listed as naringenin
  COX-2 Expression, HCA-7 cell line: decreased COX–2 expression
COX–2 protein [7]
  COX–2 protein levels, LPS stimulated RAW 264.7 cells: decreased COX–2 protein levels
